From publication PMC5996281, “Salinity Tolerance of Two Potato Cultivars (Solanum tuberosum) Correlates With Differences in Vacuolar Transport Activity” (Frontiers in Plant Science, 2018) come the findings set out here.

As a reminder, the Km is the substrate concentration at which the rate is half of its maximum. As a reminder, the EC50 is the concentration needed to bring the measured effect to its halfway point.

Assay [1] relates to T1, V-H^+-PPase (cv. Desiree).
T1 construct: gene StVP1
Conditions: 10 mM Mops-TRIS pH 7.0, 5 mM MgCl2, 100 mM KCl; vesicles from control plants (0 mM NaCl).

The next assay concerns T2, V-H^+-PPase (cv. Mozart).
T2 construct: gene StVP1
Conditions: 10 mM Mops-TRIS pH 7.0, 5 mM MgCl2, 100 mM KCl; vesicles from control plants (0 mM NaCl).

For a further assay, the target named is T3, V-H^+-ATPase.
T3 construct: gene VHA-c; native V1Vo complex in tonoplast-enriched leaf vesicles; with V-type proton ATPase catalytic subunit A; V-type proton ATPase subunit B
Nature of the assay: ACMA fluorescence quench, ATP-driven H+ pumping in tonoplast vesicles. Conditions: 1 mM Mg ATP, 10 mM Mops-TRIS pH 7.0, 5 mM MgCl2, 100 mM KCl; inhibition; cultivar not told. The format is biochemical, Solanum tuberosum.

For assay [2], the system named is T4, V-H^+-ATPase (cv. Mozart).
T4 construct: gene VHA-A; subunit A 69 kDa on blot; with V-type proton ATPase 16 kDa proteolipid subunit; V-type proton ATPase subunit a
Nature of the assay: ACMA fluorescence quench, initial rate of H+ pumping in tonoplast vesicles. Type of assay: biochemical, Solanum tuberosum. The following applies: 10 mM Mops-TRIS pH 7.0, 5 mM MgCl2, 100 mM KCl; vesicles from control plants (0 mM NaCl).

Assay [3] relates to T5, V-H^+-ATPase (cv. Desiree).
T5 construct: gene VHA-A; subunit A 69 kDa on blot; with V-type proton ATPase 16 kDa proteolipid subunit; V-type proton ATPase subunit a
The assay is described as above. The format is biochemical, Solanum tuberosum. Conditions: 10 mM Mops-TRIS pH 7.0, 5 mM MgCl2, 100 mM KCl; vesicles from control plants (0 mM NaCl).

Consider `O=P(O)(O)OP(=O)(O)O` [PPi], for which the Km in assay [1] amounted to 7.3 ± 1.1 µM; with V-H^+-PPase (cv. Mozart), 9.6 ± 0.8 µM.

As to `CO/C1=C\C(C)=C\[C@@H](C)[C@@H](O)[C@@H](C)C/C(C)=C/C=C/[C@H](OC)[C@@H]([C@@H](C)[C@@H](O)[C@H](C)[C@@]2(O)C[C@@H](O)[C@H](C)[C@@H](C(C)C)O2)OC1=O` [bafilomycin], the midpoint of the response at V-H^+-ATPase, the EC50, lay at 200 pM. Regarding `Nc1ncnc2c1ncn2[C@@H]1O[C@H](COP(=O)(O)OP(=O)(O)OP(=O)(O)O)[C@@H](O)[C@H]1O` [ATP], the Km in assay [2] amounted to 28 µM; in assay [3] it was 81 µM.
